Where a name gives a salt, the structure may show the parent alone.
Legend:
[1] = acid; cited from earlier work
[2] = Dynamic vapor sorption (DVS) hygroscopicity; assay type: physicochemical; settings: for Hygroscopicity 40% RH: Table 3, 40% RH; for Hygroscopicity 75% RH: Table 3, 75% RH; for Hygroscopicity 90% RH: Table 3, 90% RH
Method: DVS—Measurement of Dynamic Vapor Sorption: DVS experiments have been carried out using the DVS-HT instrument (Surface Measurement Systems, London, UK). This instrument measures the uptake and loss of vapor gravimetrically using a recording ultra-microbalance with a mass resolution of ±0.1 μg. The vapor partial pressure (±1.0%) around the sample is controlled by mixing saturated and dry carrier gas streams using electronic mass flow controllers. The desired temperature is maintained at ±0.1° C. […] The sample was loaded and unloaded at 40% RH and 25° C. (typical room conditions). A moisture sorption isotherm was performed as outlined below (2 scans giving 1 complete cycle). The software uses a least squares minimization procedure together with a model of the mass relaxation, to predict an asymptotic value. The measured mass equilibration value must be within 2% of that predicted by the software before proceeding to the next % RH value. The minimum equilibration time was set to 1 hour and the maximum to 4 hours.

[3] = WO 01/46145 salt; cited from earlier work
[4] = for pH: pH column of water solubility table (Table 2)
[5] = 4 week, 40° C. and 75% RH

Hygroscopicity 40% RH [2] [%]	Hygroscopicity 75% RH [2] [%]	Hygroscopicity 90% RH [2] [%]	Molecule	pKa1 [1]	further results
–	–	–	O=S(=O)(O)c1ccccc1 [Benzene sulfonic acid]	0.70	–
–	–	–	O=C(O)CO [Glycolic acid]	3.28	–
0.04	0.08	0.12	Br.CCCN1CCC(c2cccc(S(C)(=O)=O)c2)CC1 [HBr, reference compound]	–	–
0.1	0.45	7.3	CCCN1CCC(c2cccc(S(C)(=O)=O)c2)CC1 [Hydrochloride, pridopidine hydrochloride, reference compound]	–	relative humidities at which non-hygroscopic [3]: below 86%; relative humidity in excess of which deliquescent [3]: > 86%; pH [4]: 6.0
–	–	–	O=S(=O)(O)c1ccc2ccccc2c1 [Naphthalene 2-sulfonic acid]	0.17	–
3	40	70	CCCN1CCC(c2cccc(S(C)(=O)=O)c2)CC1.CCCN1CCC(c2cccc(S(C)(=O)=O)c2)CC1.O=C(O)CCC(=O)O [Succinate (hemi), pridopidine succinate (hemi)]	–	Deliquescence during the DVS test [2]: deliquesced; DVS weight gain ([2]; 40% RH): 3%; DVS weight gain ([2]; 70% RH): 4%; DVS weight gain ([2]; 90% RH): 37%
0.1	0.2	17.2	pridopidine L-malate	–	chemical and physical stability [5]: acceptable; Water solubility, Conc. ([4]; kinetic, in water, shaken 20 minutes): 76 mg/mL; pH [4]: 3.9
0.02	0.1	0.2	pridopidine tosylate	–	XRPD pattern before and after the DVS test [2]: no change in XRPD pattern; DVS weight gain ([2]; 40% RH): 0.02%; DVS weight gain ([2]; 70% RH): 0.1%; DVS weight gain ([2]; 90% RH): 0.2%

— patent publication US9796673B2 (TEVA PHARMACEUTICALS INTERNATIONAL GMBH, priority 2014, dated 2017)
